# Like-named read-outs stand apart in the source and are kept apart here.
# Tested on: Sprague Dawley rats Crl:CD
# Type: in vivo, rat
# Source text: In addition to the database described and utilized herein, other toxicology gene expression databases may be generated, and used to identify additional liver toxicity biomarkers, which may also be employed in the practice of the liver inflammation prediction methods of the invention. […] An example of compounds, dose levels, liver toxicity classifications and histopathology scores used in the Examples which follow are provided in Table 1. The compounds and dose levels are abbreviated in the Abbreviation Column. The Inflammation Score relates the histopathology liver inflammation, a score of “2” or higher indicates histopathology of increasing severity.
# Identification of Correlating Genes: For the purpose of identifying candidate predictive genes, the database preferably includes histopathology scores for each animal which has been exposed to one or more agent(s). […] The scores are numerical scores that reflect the occurrence and severity of histopathological changes. These scores can be adjusted to have similar range to gene expression changes. […] Because the scores are numerical, they are suitable for use with a variety of statistical correlation and similarity measures.
# Sprague Dawley rats Crl:CD from Charles River, Raleigh, N.C. were divided into treated rats that receive a specific concentration of the compound (see Table 1) and the control rats that only received the vehicle in which the compound is mixed (e.g., saline).
# At specified timepoints (6 h, 24 h and 72 h) after administration (intraperitoneal route) of the compound, a set number of rats (usually 3 control and 3 treated) were euthanized and tissues collected. Each rat was heavily sedated with an overdose of CO2 by inhalation and a maximum amount of blood drawn. Exsanguination of the rat by this drawing of blood kills the rat. The method of collecting the tissues is very important and ensures preserving the quality of the mRNA in the tissues. The body of the rat was then opened up and prosectors rapidly removed the tissues (including liver) and immediately placed them into liquid nitrogen. […] The organs/tissues were then packaged into well-labeled plastic freezer quality bags and stored at −80 degrees until needed for isolation of the mRNA from a portion of the organ/tissue sample.
# Correlation with Histopathology Scores: Histopathology scores for each animal (assigned on a compound-dose basis as indicated in Table 1) were entered with gene expression data by using the GeneSpring™ ‘Drawn Gene’ function. Correlations between inflammation histopathology scores and gene expression were conducted with the distance measures listed below: […]
# [1] = 0.25 ml/kg i.p., 72 h, 1=no histopathology, 2 or higher=increasing severity
# [2] = 1 ml/kg i.p., 72 h, 1=no histopathology, 2 or higher=increasing severity
# [3] = 20 mg/kg i.p., 72 h, 1=no histopathology, 2 or higher=increasing severity
# [4] = 75 mg/kg i.p., 72 h, 1=no histopathology, 2 or higher=increasing severity
# [5] = Sprague Dawley Crl:CD, rat, in vivo
# [6] = 15 mgkg i.p., 72 h, 1=no histopathology, 2 or higher=increasing severity
# [7] = 60 mgkg i.p., 72 h, 1=no histopathology, 2 or higher=increasing severity
# [8] = 38 mg/kg i.p., 72 h, 1=no histopathology, 2 or higher=increasing severity
# [9] = 150 mg/kg i.p., 72 h, 1=no histopathology, 2 or higher=increasing severity
# [10] = 2.5 mg/kg i.p., 72 h, 1=no histopathology, 2 or higher=increasing severity
# [11] = 10 mg/kg i.p., 72 h, 1=no histopathology, 2 or higher=increasing severity
# [12] = 50 mg/kg i.p., 72 h, 1=no histopathology, 2 or higher=increasing severity
# [13] = 200 mg/kg i.p., 72 h, 1=no histopathology, 2 or higher=increasing severity
# [14] = 250 mg/kg i.p., 72 h, 1=no histopathology, 2 or higher=increasing severity
# [15] = 1000 mg/kg i.p., 72 h, 1=no histopathology, 2 or higher=increasing severity
# [16] = 13 mg/kg i.p., 72 h, 1=no histopathology, 2 or higher=increasing severity
# [17] = 0.2 ml/kg i.p., 72 h, 1=no histopathology, 2 or higher=increasing severity
# [18] = 0.8 ml/kg i.p., 72 h, 1=no histopathology, 2 or higher=increasing severity
# [19] = 14 mg/kg i.p., 72 h, 1=no histopathology, 2 or higher=increasing severity
structure (smiles),measurement,setting,value
ClC(Cl)(Cl)Cl [carbon tetrachloride],Liver Inflammation,"0.25 ml/kg i.p., 72 h",no
same,Liver Necrosis,"0.25 ml/kg i.p., 72 h",yes
same,Inflamm. Score,[1],1
same,Necr. Score,[1],3
same,Liver Inflammation,"1 ml/kg i.p., 72 h",yes
same,Liver Necrosis,"1 ml/kg i.p., 72 h",yes
same,Inflamm. Score,[2],3
same,Necr. Score,[2],6
same,liver necrosis or necrosis with inflammation,high dose,produced liver necrosis or necrosis with inflammation
same,liver necrosis or necrosis with inflammation,low dose,not at the low dose
CN(N=O)C(=O)N[C@H]1C(O)O[C@H](CO)[C@@H](O)[C@@H]1O (mixture of isomers) [streptozotocin],Liver Inflammation,"20 mg/kg i.p., 72 h",no
same,Liver Necrosis,"20 mg/kg i.p., 72 h",no
same,Inflamm. Score,[3],1
same,Necr. Score,[3],1
same,Liver Inflammation,"75 mg/kg i.p., 72 h",no
same,Liver Necrosis,"75 mg/kg i.p., 72 h",no
same,Inflamm. Score,[4],1
same,Necr. Score,[4],1
COc1cc2c(c3oc(=O)c4c(c13)CCC4=O)[C@@H]1C=CO[C@@H]1O2 [aflatoxin],Inflamm. Score,"rat, in vivo",4
same,Liver Inflammation,"rat, in vivo",yes
same,Liver Necrosis,"rat, in vivo",yes
same,Necr. Score,"rat, in vivo",8
CN1CCN(C2=Nc3cc(Cl)ccc3Nc3ccccc32)CC1 [clozapine],Inflamm. Score,[5],1
same,Necr. Score,[5],1
same,Liver Inflammation,"rat, in vivo",no
same,Liver Necrosis,"rat, in vivo",no
S=C=Nc1cccc2ccccc12 [1-naphthylisothiocyanate],Liver Necrosis,"15 mgkg i.p., 72 h",no
same,Inflamm. Score,[6],1
same,Necr. Score,[6],1
same,Liver Necrosis,"60 mgkg i.p., 72 h",yes
same,Inflamm. Score,[7],2
same,Necr. Score,[7],2
COc1ccc(C[C@H](N)C(=O)N[C@H]2[C@@H](O)[C@H](n3cnc4c(N(C)C)ncnc43)O[C@@H]2CO)cc1 [puromycin],Liver Inflammation,"38 mg/kg i.p., 72 h",no
same,Liver Necrosis,"38 mg/kg i.p., 72 h",no
same,Inflamm. Score,[8],1
same,Necr. Score,[8],1
same,Liver Inflammation,"150 mg/kg i.p., 72 h",no
same,Liver Necrosis,"150 mg/kg i.p., 72 h",no
same,Inflamm. Score,[9],1
same,Necr. Score,[9],1
N.N.[Cl][Pt][Cl] [cisplatin],Liver Inflammation,"2.5 mg/kg i.p., 72 h",no
same,Liver Necrosis,"2.5 mg/kg i.p., 72 h",no
same,Inflamm. Score,[10],1
same,Necr. Score,[10],1
same,Liver Inflammation,"10 mg/kg i.p., 72 h",no
same,Liver Necrosis,"10 mg/kg i.p., 72 h",no
same,Inflamm. Score,[11],1
same,Necr. Score,[11],1
Cn1c(=O)c2[nH]cnc2n(C)c1=O [theophylline],Inflamm. Score,[5],1
same,Necr. Score,[5],1
same,Liver Inflammation,"rat, in vivo",no
same,Liver Necrosis,"rat, in vivo",no
Nc1nc(O)c2ncn(COC(CO)CO)c2n1 [gancyclovir],Liver Inflammation,"50 mg/kg i.p., 72 h",no
same,Liver Necrosis,"50 mg/kg i.p., 72 h",no
same,Inflamm. Score,[12],1
same,Necr. Score,[12],1
same,Liver Inflammation,"200 mg/kg i.p., 72 h",no
same,Liver Necrosis,"200 mg/kg i.p., 72 h",no
same,Inflamm. Score,[13],1
same,Necr. Score,[13],1
NC(=O)NO [hydroxyurea],Liver Inflammation,"250 mg/kg i.p., 72 h",no
same,Liver Necrosis,"250 mg/kg i.p., 72 h",no
same,Inflamm. Score,[14],1
same,Necr. Score,[14],1
same,Liver Inflammation,"1000 mg/kg i.p., 72 h",no
same,Liver Necrosis,"1000 mg/kg i.p., 72 h",no
same,Inflamm. Score,[15],1
same,Necr. Score,[15],1
CC(=O)Nc1ccc(O)cc1 [acetaminophen],Inflamm. Score,[5],1
same,Liver Inflammation,"rat, in vivo",no
O=c1[nH]cc(F)c(=O)[nH]1 [5-fluorouracil],Liver Inflammation,"13 mg/kg i.p., 72 h",no
same,Liver Necrosis,"13 mg/kg i.p., 72 h",no
same,Inflamm. Score,[16],1
same,Necr. Score,[16],1
same,Liver Inflammation,"50 mg/kg i.p., 72 h",no
same,Liver Necrosis,"50 mg/kg i.p., 72 h",no
same,Inflamm. Score,[12],1
same,Necr. Score,[12],1
Brc1ccccc1 [bromobenzene],Liver Inflammation,"0.2 ml/kg i.p., 72 h",yes
same,Liver Necrosis,"0.2 ml/kg i.p., 72 h",yes
same,Inflamm. Score,[17],2
same,Necr. Score,[17],2
same,Liver Inflammation,"0.8 ml/kg i.p., 72 h",yes
same,Liver Necrosis,"0.8 ml/kg i.p., 72 h",yes
same,Inflamm. Score,[18],3
same,Necr. Score,[18],4
CS(=O)(=O)OCCCCOS(C)(=O)=O [busulfan],Liver Inflammation,"14 mg/kg i.p., 72 h",no
same,Liver Necrosis,"14 mg/kg i.p., 72 h",no
same,Inflamm. Score,[19],1
same,Necr. Score,[19],1
C[C@@H]1C[C@H]2[C@@H]3CCC4=CC(=O)C=C[C@]4(C)[C@@]3(F)[C@@H](O)C[C@]2(C)[C@@]1(O)C(=O)CO [dexamethasone],Inflamm. Score,[5],1
same,Necr. Score,[5],1
same,Liver Inflammation,"rat, in vivo",no
same,Liver Necrosis,"rat, in vivo",no

# From patent US20040067507A1, “Liver inflammation predictive genes” (priority 2002, published 2004)
